Data taken from paper PMC6566410, “Novel Diamide-Based Benzenesulfonamides as Selective Carbonic Anhydrase IX Inhibitors Endowed with Antitumor Activity: Synthesis, Biological Evaluation and In Silico Insights” (International Journal of Molecular Sciences, 2019).

Key:
Experiment in all cases: NCI one-dose SRB assay
Format in all cases: cell-based
OVCAR-3 = conditions: Homo sapiens, OVCAR-3 (Ovarian Cancer), 1.00E-5 Molar, read-out: Growth Percent
Method: (§1) First, all diamide-based benzenesulfonamides herein reported 5a–h were screened for their antitumor activity at one dose (10^−5 M) assay against a panel of sixty cancer cell lines through the National Cancer Institute (NCI) Developmental Therapeutic Program (www.dtp.nci.nih.gov), according to US-NCI protocol. The cell growth and cell viability were evaluated using the sulforhodamine B (SRB) colorimetric assay.
(§2) This assay was carried out according to the protocol of the Drug Evaluation Branch, NCI, Bethesda. The cell growth and cell viability were evaluated using the sulforhodamine B (SRB) colorimetric assay, as reported earlier.

HS 578T = conditions: Homo sapiens, HS 578T (Breast Cancer), 1.00E-5 Molar, read-out: Growth Percent
Method: as §1, §2

CAKI-1 = conditions: Homo sapiens, CAKI-1 (Renal Cancer), 1.00E-5 Molar, read-out: Growth Percent
Method: as §1, §2

K-562 = conditions: Homo sapiens, K562, K-562 (Leukemia), 1.00E-5 Molar, read-out: Growth Percent
Method: as §1, §2

HCC-2998 = conditions: Homo sapiens, HCC-2998 (Colon Cancer), 1.00E-5 Molar, read-out: Growth Percent
Method: as §1, §2

OVCAR-4 = conditions: Homo sapiens, OVCAR-4 (Ovarian Cancer), 1.00E-5 Molar, read-out: Growth Percent
Method: as §1, §2

EKVX = conditions: Homo sapiens, EKVX (Non-Small Cell Lung Cancer), 1.00E-5 Molar, read-out: Growth Percent
Method: as §1, §2

SNB-75 = conditions: Homo sapiens, SNB-75 (CNS Cancer), 1.00E-5 Molar, read-out: Growth Percent
Method: as §1, §2

OVCAR-8 = conditions: Homo sapiens, OVCAR-8 (Ovarian Cancer), 1.00E-5 Molar, read-out: Growth Percent
Method: as §1, §2

HT29 = conditions: Homo sapiens, HT-29, HT29 (Colon Cancer), 1.00E-5 Molar, read-out: Growth Percent
Method: as §1, §2

UACC-257 = conditions: Homo sapiens, UACC-257 (Melanoma), 1.00E-5 Molar, read-out: Growth Percent
Method: as §1, §2

MCF7 = conditions: Homo sapiens, MCF7 (Breast Cancer), 1.00E-5 Molar, read-out: Growth Percent
Method: as §1, §2

LOX IMVI = conditions: Homo sapiens, LOX IMVI (Melanoma), 1.00E-5 Molar, read-out: Growth Percent
Method: as §1, §2

A498 = conditions: Homo sapiens, A498 (Renal Cancer), 1.00E-5 Molar, read-out: Growth Percent
Method: as §1, §2

NCI-H23 = conditions: Homo sapiens, NCI-H23 (Non-Small Cell Lung Cancer), 1.00E-5 Molar, read-out: Growth Percent
Method: as §1, §2

SNB-19 = conditions: Homo sapiens, SNB-19 (CNS Cancer), 1.00E-5 Molar, read-out: Growth Percent
Method: as §1, §2

NCI/ADR-RES = conditions: Homo sapiens, NCI/ADR-RES (Ovarian Cancer), 1.00E-5 Molar, read-out: Growth Percent
Method: as §1, §2

KM12 = conditions: Homo sapiens, KM12 (Colon Cancer), 1.00E-5 Molar, read-out: Growth Percent
Method: as §1, §2

IGROV1 = conditions: Homo sapiens, IGROV-1, IGROV1 (Ovarian Cancer), 1.00E-5 Molar, read-out: Growth Percent
Method: as §1, §2

CCRF-CEM = conditions: Homo sapiens, CCRF-CEM (Leukemia), 1.00E-5 Molar, read-out: Growth Percent
Method: as §1, §2

SK-MEL-28 = conditions: Homo sapiens, SK-MEL-28 (Melanoma), 1.00E-5 Molar, read-out: Growth Percent
Method: as §1, §2

SN12C = conditions: Homo sapiens, SN12C (Renal Cancer), 1.00E-5 Molar, read-out: Growth Percent
Method: as §1, §2

TK-10 = conditions: Homo sapiens, TK-10 (Renal Cancer), 1.00E-5 Molar, read-out: Growth Percent
Method: as §1, §2

SW-620 = conditions: Homo sapiens, SW-620 (Colon Cancer), 1.00E-5 Molar, read-out: Growth Percent
Method: as §1, §2

OVCAR-5 = conditions: Homo sapiens, OVCAR-5 (Ovarian Cancer), 1.00E-5 Molar, read-out: Growth Percent
Method: as §1, §2

HOP-92 = conditions: Homo sapiens, HOP-92 (Non-Small Cell Lung Cancer), 1.00E-5 Molar, read-out: Growth Percent
Method: as §1, §2

RXF 393 = conditions: Homo sapiens, RXF 393 (Renal Cancer), 1.00E-5 Molar, read-out: Growth Percent
Method: as §1, §2

MDA-MB-435 = conditions: Homo sapiens, MDA-MB-435 (Melanoma), 1.00E-5 Molar, read-out: Growth Percent
Method: as §1, §2

SK-MEL-2 = conditions: Homo sapiens, SK-MEL-2 (Melanoma), 1.00E-5 Molar, read-out: Growth Percent
Method: as §1, §2

UACC-62 = conditions: Homo sapiens, UACC-62 (Melanoma), 1.00E-5 Molar, read-out: Growth Percent
Method: as §1, §2

A549/ATCC = conditions: Homo sapiens, A549/ATCC (Non-Small Cell Lung Cancer), 1.00E-5 Molar, read-out: Growth Percent
Method: as §1, §2

Row | SMILES | activity at 10 µM (OVCAR-3) | activity at 10 µM (HS 578T) | activity at 10 µM (CAKI-1) | activity at 10 µM (K-562) | activity at 10 µM (HCC-2998) | activity at 10 µM (OVCAR-4) | activity at 10 µM (EKVX) | activity at 10 µM (SNB-75) | activity at 10 µM (OVCAR-8) | activity at 10 µM (HT29) | activity at 10 µM (UACC-257) | activity at 10 µM (MCF7) | activity at 10 µM (LOX IMVI) | activity at 10 µM (A498) | activity at 10 µM (NCI-H23) | activity at 10 µM (SNB-19) | activity at 10 µM (NCI/ADR-RES) | activity at 10 µM (KM12) | activity at 10 µM (IGROV1) | activity at 10 µM (CCRF-CEM) | also measured
1 | NS(=O)(=O)c1ccc(NC(=O)C(=Cc2ccc(Br)cc2)NC(=O)c2ccccc2)cc1 [Compound 5c, N-(1-(4-Bromophenyl)-3-oxo-3-((4-sulfamoylphenyl)amino)prop-1-en-2-yl)benzamide] | 103% | 93.9% | 91% | 92.8% | 103% | 93.7% | 102% | 86.5% | 102% | 89.1% | 105% | 98.1% | 99.7% | 94.5% | 100% | 95.1% | 102% | 102% | 90.2% | 99.4% | activity at 10 µM (SK-MEL-28): 113%; activity at 10 µM (SN12C): 99.4%; activity at 10 µM (TK-10): 102%; activity at 10 µM (SW-620): 104%; activity at 10 µM (OVCAR-5): 99.8%; activity at 10 µM (HOP-92): 94%; activity at 10 µM (RXF 393): 95.8%; activity at 10 µM (MDA-MB-435): 95%; activity at 10 µM (SK-MEL-2): 97.3%; activity at 10 µM (UACC-62): 88.1%; activity at 10 µM (A549/ATCC): 102%
2 | NS(=O)(=O)c1ccc(NC(=O)C(=Cc2ccc(Cl)cc2Cl)NC(=O)c2ccccc2)cc1 [Compound 5b, N-(1-(2,4-Dichlorophenyl)-3-oxo-3-((4-sulfamoylphenyl)amino)prop-1-en-2-yl)benzamide] | 113% | 89.5% | 88.6% | 88.2% | 103% | 97.7% | 99.6% | 81.4% | 101% | 103% | 102% | 90.1% | 96.2% | 95% | 107% | 95.6% | 98.2% | 102% | 74.9% | 105% | activity at 10 µM (SK-MEL-28): 110%; activity at 10 µM (SN12C): 94.7%; activity at 10 µM (TK-10): 104%; activity at 10 µM (SW-620): 104%; activity at 10 µM (OVCAR-5): 108%; activity at 10 µM (HOP-92): 87%; activity at 10 µM (RXF 393): 96%; activity at 10 µM (MDA-MB-435): 97.7%; activity at 10 µM (SK-MEL-2): 95.3%; activity at 10 µM (UACC-62): 75%; activity at 10 µM (A549/ATCC): 105%
3 | COc1ccc(C=C(NC(=O)c2ccccc2)C(=O)Nc2ccc(S(N)(=O)=O)cc2)cc1 [Compound 5e, N-(1-(4-Methoxyphenyl)-3-oxo-3-((4-sulfamoylphenyl)amino)prop-1-en-2-yl)benzamide] | 111% | 102% | 98.1% | 101% | 106% | 111% | 105% | 95.5% | 99.4% | 100% | 102% | 98.5% | 99.1% | 102% | 99.6% | 100% | 106% | 106% | 94.5% | 106% | activity at 10 µM (SK-MEL-28): 106%; activity at 10 µM (SN12C): 97.1%; activity at 10 µM (TK-10): 107%; activity at 10 µM (SW-620): 101%; activity at 10 µM (OVCAR-5): 108%; activity at 10 µM (HOP-92): 109%; activity at 10 µM (RXF 393): 110%; activity at 10 µM (MDA-MB-435): 97.5%; activity at 10 µM (SK-MEL-2): 102%; activity at 10 µM (UACC-62): 92.7%; activity at 10 µM (A549/ATCC): 103%
